Test results: patent US20240033244A1, “COMPOSITIONS AND METHODS FOR INHIBITING YTHDF1” (SHANGHAI INSTITUTE OF MATERIA MEDICA, CHINESE ACADEMY OF …, priority 2020, published 2024)

Legend:
[1] = target: T1, YTHDF1 mutant N378A (Homo sapiens, UniProt Q9BYJ9, N378A); assay: FP assay with YTHDF1 mutant N378A; type: binding
T1 construct: GST (N, cleaved yes); made in house; host or cells: E. coli BL21 (DE3)
Description: (§1) The protein YTHDF1 (361-559) (SEQ ID NO: 2) and its mutants (SEQ ID NOs: 4-13) were cloned into pGEx-6P-1 vector (obtained from YouBio Co, Ltd, Catalog NO: VT1258), and the His-YTHDF1 (361-559) (SEQ ID NO: 3) used in AlphaScreen Assay was cloned into modified pET28a vector (obtained from YouBio Co, Ltd, Catalog NO: VT1207). The vectors were transformed into E. coli BL21 (DE3) cells and cultured at 37° C. When OD value reached 0.6˜0.8, 1 mM Isopropyl-β-D-thiogalactopyranoside was added to overexpress the protein at 16° C. overnight. […] Then, the proteins were further purified via cation exchange (HiTrap SP, GE Healthcare) and finally through a Superdex 75 10/300 column (GE Healthcare). At last, the purified YTHDF1(361-559) and the mutants were kept in buffer which contains 20 mM Hepes (pH 7.4) and 200 mM NaCl. For His-YTHDF1 (361-559), the protein was purified via Ni-NTA chromatography (HisTrap FF, GE Healthcare), followed by cation exchange and Superdex 75 10/300 column in sequence. And the obtained protein was kept in the buffer with the same ingredients.
(§2) All of the YTHDF1 (361-559), the 5′-FAM labeled m^6A-containing mRNA (5′-FAM-[…] (m^6A) CUGUG-3′, SEQ ID NO: 14) and the candidate compounds were diluted with assay buffer (20 mM Hepes (pH 7.4), 50 mM NaCl, 0.01% (v/v) tween 20, 5% (v/v) glycerol). […] At last, the mixtures were measured by Envision Readers (PerkinElmer). […]

[2] = target: T2, YTHDF1 mutant F382A (Homo sapiens, UniProt Q9BYJ9, F382A); assay: FP assay with YTHDF1 mutant F382A; type: binding
T2 construct: GST (N, cleaved yes); made in house; host or cells: E. coli BL21 (DE3)
T2 sequence (Q9BYJ9 with tags, fused parts or gaps F382A): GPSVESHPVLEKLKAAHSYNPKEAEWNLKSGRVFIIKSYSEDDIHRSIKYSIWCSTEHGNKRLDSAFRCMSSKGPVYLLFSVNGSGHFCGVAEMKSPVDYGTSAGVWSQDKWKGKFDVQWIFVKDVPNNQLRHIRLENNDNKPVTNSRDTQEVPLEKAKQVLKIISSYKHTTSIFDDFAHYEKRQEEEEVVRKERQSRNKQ
Description: as §1, §2

[3] = test system: B16-OVA melanoma; assay: B16-OVA tumor growth in wild-type mice; type: in vivo, mouse
[4] = test system: OT-I T cells; assay: CFSE-labeled OT-I T cell proliferation in vitro; type: cell-based, mouse; details: 5×10^5 CFSE-labeled OT-I T cells, various doses, 1 μg/mL OT-I peptide 24 hours
Description: 1×10^7 lymphocytes form lymph nodes of naïve OT-I mice were washed with PBS twice, then resuspend in 1 mL PBS. 1 μL CFSE Tracker was added into suspension and incubated in 37° C. for 5 min. Then 5 mL RPMI-1640 medium with 10% FBS was added to stop CFSE labelling, incubated at room temperature for 5 min. After centrifugation, CFSE-labeled T cells were suspended with another 5 mL RPMI-1640 medium at least for 10 min in room temperature.
In a further experiment, 5×10^5 CFSE-labeled OT-I T cells were treated with SAA of various doses in 96-well plates, then the cells were stimulated with 1 μg/mL OT-I peptide for 24 hours. Divided T cells were analyzed by FACS.

[5] = test system: classical DCs in draining lymph node; assay: Ex vivo cross-priming by DCs sorted from draining lymph node of treated mice; type: in vivo, mouse; details: four DC subtypes from SAA treated B16-OVA bearing mice, day 12
Description: For in vitro cross-presentation study, mature FLT3L-DCs were harvested on day 9 and purified by EasySep Mouse CD11 c Positive Selection Kit II, then treated with 10 μM SAA or DMSO in IMDM medium (contain 10% bovine and 100 ng/mL FLT3L) for 10 h. […] Then antigen-obtained DCs were purified and co-cultured with naïve T cells from OT-1 mice at a ratio of 1:10 for 96 h. The co-culture medium was 1640 RPMI contains 10% fetal bovine with or without 1 μg/mL OT-1 (OVA 257-264) peptide. For ex vivo DCs cross-presentation assay, four types of DCs (migration CD11b DC, migration CD103′ DC, resident CD11b DC and resident CD8^+ DC) were sorted in draining lymph node from SAA treated B16-OVA bearing mice at day 12. These DCs were co-cultured with OT-1 naïve T cells in the ratio of 1:10 for 96 hours with or without OT-1 peptide. Supernatant IFN-γ production was detected via CBA assay.
Further, four types of classical DCs (resident CD11b^+, resident CD8α^+, migratory CD11b^+ and migratory CD103^+) in draining lymph node were sorted from SAA treated B16-OVA bearing wild-type mice on day 12. These DCs were co-cultured with OT-I T cells for 72 hours. Then, IFN-γ production was assessed by IFN-γ cytometric bead array.

[6] = test system: tumor infiltrating T cells; assay: Tumor infiltrating T cell function (PMA/ionomycin, intracellular staining); type: in vivo, mouse; details: B16-OVA bearing mice, PMA and ionomycin stimulation
Description: Tumor infiltrating leukocytes were resuspended by RPMI 1640 medium at 5×10^6 per mL in 96-well plates. Phorbol-12-myristate-13-acetate (PMA) (2.5 μg/mL) and ionomycin (0.5 μg/mL) were used to stimulate T cells together with brefeldin A were added to the culture medium for 2 hours at 37° C. Cell concentration of total lymphocytes from draining lymph node was adjusted to 5×10^6 per mL in 96-well plate. 1 μg/mL OT-1 (OVA 257-264) peptide was added to the wells and stimulated for 96 hours. Samples were stained with CD45 and CD8 on ice for 30 min. Intracellular staining was performed to quantify IFN-γ and granzyme B production.
To explore the effects of SAA treatment on T cell function, SAA treated B16-OVA bearing mice were sacrificed to investigate tumor infiltrating T cell (TILs) function. Firstly, Phorbol-12-myristate-13-acetate (PMA) and ionomycin were used to nonspecifically stimulate tumor infiltrating T cell, then intracellular staining was performed to quantify cytokine (e.g., IFN-γ, granzyme B) production by FACS.

T1 sequence (Q9BYJ9 with tags, fused parts or gaps N378A): as the sequence (Q9BYJ9 with tags, fused parts or gaps F382A) above, with N20A, A24F counted along it

## O=C(/C=C/c1ccc(O)c(O)c1/C=C/c1ccc(O)c(O)c1)O[C@H](Cc1ccc(O)c(O)c1)C(=O)O [SAA, Salvianolic Acid A]
[1]
  inhibitory activity against mutant binding to m6A versus wildtype: significantly weaker than that against wildtype YTHDF1
[2]
  inhibitory activity against mutant binding to m6A versus wildtype: significantly weaker than that against wildtype YTHDF1
[3]; 5×10^5 B16-OVA in C57BL/6 mice, 10 μM i.v. 9 days after implantation (FIG. 19)
  tumor growth versus DMSO: tumor growth was much slower
[3]; 5×10^5 B16-OVA s.c., 10 μM SAA on day 9 and 11
  tumor growth versus control: tumor growth was much slower
[4]
  T cell proliferation: could not influence T cell proliferation
[5]
  cross-priming of T cells (IFN-γ production): better cross-priming of T cells than DMSO treated group
[6]
  cytokine (IFN-γ, granzyme B) production by tumor infiltrating T cells: higher level of cytokines than DMSO group
